The values below come from patent US10800772B2 (Gilead Sciences, Inc., priority 2016, dated 2020).

Read-outs that look alike come from different tables or passages of the source.

One may read the EC50 as the concentration giving half of the maximal effect.

Holding throughout (assay type): cell-based, HIV-1
The subject of assay [1] is HIV-IIIb IN T174I DE. Briefly: Antiviral assay in MT4 cells, HIV-IIIb IN T174I DE virus (from dose escalation passaging). The essentials:
(§1)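 MT4 cells were pre-infected 3 h at 37 °C with HIV-IIIb (0.004 m.o.i.): wildtype, or IN T174I virus from breakthrough or from dose-escalation passaging. Cells (2000/well) were exposed to 10-point 3-fold compound dilutions in quadruplicate for 5 days at 37 °C. EC50 was the concentration giving 50% decrease in CellTiter-Glo luminescence.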

The test system of assay [2] is HIV-IIIb (wildtype). In words: Antiviral assay in MT4 cells, HIV-IIIb wildtype. In short, it runs like this: as §1
The test system of assay [3] is HIV-IIIb IN T174I BT. In words: Antiviral assay in MT4 cells, HIV-IIIb IN T174I BT virus (from viral breakthrough). The essentials:
as §1

[4] abbreviates: Human immunodeficiency virus 1, IIIB, MT4, 120 h, read-out: T174I DE EC50, MT4 cells, HIV-IIIb IN T174I DE (dose escalation), 5 days, CellTiter-Glo.
The mark [5] stands for this setting: Human immunodeficiency virus 1, IIIB, MT4, 120 h, read-out: WT EC50.
The mark [6] stands for this setting: Human immunodeficiency virus 1, IIIB, MT4, 120 h, read-out: T174I BT EC50, MT4 cells, HIV-IIIb IN T174I BT (viral breakthrough), 5 days, CellTiter-Glo.
Setting [7] is: MT4 cells, HIV-IIIb IN T174I DE (dose escalation), 5 days, CellTiter-Glo, read-out: T174I DE EC50.
[8] abbreviates: MT4 cells, HIV-IIIb wildtype, 5 days, CellTiter-Glo; read-out: WT EC50.
[9] abbreviates: MT4 cells, HIV-IIIb IN T174I BT (viral breakthrough), 5 days, CellTiter-Glo, read-out: T174I BT EC50.
Setting [10] is: Human immunodeficiency virus 1, 120 h; MT4 cells, HIV-IIIb wildtype, 5 days, CellTiter-Glo; read-out: WT EC50.

As for `Cc1cc2nc(-c3cnc4c(c3)c(C3CCN(C)CC3)cn4C)sc2c(-c2ccc(Cl)cc2)c1[C@H](OC(C)(C)C)C(=O)O` [Compound 106, (S)-2-(tert-butoxy)-2-(7-(4-chlorophenyl)-5-methyl-2-(1-methyl-3-(1-methylpiperidin-4-yl)-1H-pyrrolo[2,3-b]pyridin-5-yl)benzo[d]thiazol-6-yl)acetic acid], the EC50 worked out at 3080 nM in assay [1] (setting [4]), 29 nM in assay [2] (setting [5]) and 864 nM in assay [3] (setting [6]).

In the case of `COCC(=O)N1CCC(c2nn(C)c3ccc(-c4nc5cc(C)c([C@H](OC(C)(C)C)C(=O)O)c(-c6ccc(Cl)cc6)c5s4)cc23)C1` (stereo partly drawn) [Compound 76, (S)-2-(tert-butoxy)-2-(7-(4-chlorophenyl)-2-(3-((S)-1-(2-methoxyacetyl)pyrrolidin-3-yl)-1-methyl-1H-indazol-5-yl)-5-methylbenzo[d]thiazol-6-yl)acetic acid], the EC50 in assay [1] (read-out: T174I DE EC50, MT4 cells, HIV-IIIb IN T174I DE (dose escalation), 5 days, CellTiter-Glo) is 906 nM; in assay [2] (read-out: WT EC50; MT4 cells, HIV-IIIb wildtype, 5 days, CellTiter-Glo), 16 nM; in assay [3] (read-out: T174I BT EC50, MT4 cells, HIV-IIIb IN T174I BT (viral breakthrough), 5 days, CellTiter-Glo), 510 nM.

On to “(S)-2-(tert-butoxy)- 2-(7-(4-chloro- phenyl)-2-(3-((R)- hexahydropyrazino [2,1-c][1,4]oxazin- 8(1H)-yl)-1-methyl- 1H-indazol-5-yl)- 5-methylbenzo[d] thiazol-6-yl)acetic acid [Compound 135]”, for which the EC50 was determined as 1060 nM in assay [1] (setting [7]), 10 nM in assay [2] (setting [8]) and 399 nM in assay [3] (setting [9]).

As to `COC(=O)N1CC(N2CCC(c3nn(C)c4ccc(-c5nc6cc(C)c([C@H](OC(C)(C)C)C(=O)O)c(-c7ccc(Cl)cc7)c6s5)nc34)CC2)C1` [Compound 167, (S)-2-(tert-butoxy)-2-(7-(4-chloro-phenyl)-2-(3-(1-(1-(methoxycarbonyl)azetidin-3-yl)piperidin-4-yl)-1-methyl-1H-pyrazolo[4,3-b]pyridin-5-yl)-5-methylbenzo[d]thiazol-6-yl) acetic acid], the EC50 in assay [1] (setting [4]) came out at 138 nM; in assay [2] (setting [5]) it was 3 nM; in assay [3] (setting [6]) it was 57 nM.

As for `Cc1cc2nc(-c3ccc4c(c3)c(N3CC5CC(C3)O5)nn4C)sc2c(-c2ccc(Cl)cc2)c1[C@H](OC(C)(C)C)C(=O)O` [Compound 143, (2S)-2-(2-(3-(6-oxa-3-azabicyclo [3.1.1]heptan-3-yl)-1-methyl-1H-indazol-5-yl)-7-(4-chlorophenyl)-5-methylbenzo [d]thiazol-6-yl)-2-(tert-butoxy) acetic acid], the EC50 stood at 5610 nM in assay [1] (setting [4]), 27 nM in assay [2] (setting [10]) and 5780 nM in assay [3] (setting [6]).

Regarding “(S)-2-(tert-butoxy)- 2-(7-(4-chloro- phenyl)-2-(3-(1-(2- (dimethylamino) ethyl)piperidin-4- yl)-1-methyl-1H- indazol-5-yl)-5- methylbenzo[d] thiazol-6-yl) acetic acid [Compound 130]”, the EC50 came to 232 nM in assay [1] (setting [7]), 12 nM in assay [2] (setting [8]) and 122 nM in assay [3] (setting [9]).

In the case of `Cc1cc2nc(-c3ccc4c(c3)c(C3CN(C(=O)OC(C)(C)C)C3)nn4C)sc2c(-c2ccc(Cl)cc2)c1[C@H](OC(C)(C)C)C(=O)O` [Compound 53, (S)-2-(tert-butoxy)-2-(2-(3-(1-(tert-butoxycarbonyl)azetidin-3-yl)-1-methyl-1H-indazol-5-yl)-7-(4-chlorophenyl)-5-methylbenzo[d]thiazol-6-yl)acetic acid], the EC50 came to 57000 nM in assay [1] (setting [4]), 45 nM in assay [2] (setting [5]) and 8910 nM in assay [3] (setting [6]).

With `Cc1cc2nc(-c3ccc4c(c3)c(C3CN(C(C)C)C3)nn4C)sc2c(-c2ccc(Cl)cc2)c1[C@H](OC(C)(C)C)C(=O)O` [Compound 54, (S)-2-(tert-butoxy)-2-(7-(4-chlorophenyl)-2-(3-(1-isopropylazetidin-3-yl)-1-methyl-1H-indazol-5-yl)-5-methylbenzo[d]thiazol-6-yl)acetic acid], the figures for the EC50 in assay [1] (setting [4]), in assay [2] (setting [5]) and in assay [3] (setting [6]) were 3290 nM, 6 nM and 1830 nM, respectively.

As for `COC(=O)N1CC(N2CCC(c3cnn4ccc(-c5nc6cc(C)c([C@H](OC(C)(C)C)C(=O)O)c(-c7ccc(Cl)cc7)c6s5)nc34)CC2)C1` [Compound 110, (S)-2-(tert-butoxy)-2-(7-(4-chlorophenyl)-2-(3-(1-(1-(methoxycarbonyl)azetidin-3-yl)piperidin-4-yl)pyrazolo[1,5-a]pyrimidin-5-yl)-5-methylbenzo[d]thiazol-6-yl)acetic acid], the EC50 in assay [1] (setting [4]) came out at 559 nM; in assay [2] (setting [5]), 2 nM; in assay [3] (setting [6]), 198 nM.

In the case of `Cc1cc2nc(-c3ccc4[nH]nc(C5CCN(C6COC6)CC5)c4c3)sc2c(-c2ccc(Cl)cc2)c1[C@H](OC(C)(C)C)C(=O)O` [Compound 34, (S)-2-(tert-butoxy)-2-(7-(4-chlorophenyl)-5-methyl-2-(3-(1-(oxetan-3-yl)piperidin-4-yl)-1H-indazol-5-yl)benzo[d]thiazol-6-yl)acetic acid], the 50% effective concentration (EC50) worked out at 1170 nM in assay [1] (setting [4]), 31 nM in assay [2] (setting [10]) and 968 nM in assay [3] (setting [6]).

`CC(=O)N1CC[C@@H](N2CCC(c3nn(C)c4ccc(-c5nc6cc(C)c([C@H](OC(C)(C)C)C(=O)O)c(-c7ccc(Cl)cc7)c6s5)cc34)CC2)C1` [Compound 12, (S)-2-(2-(3-(1-((R)-1-acetylpyrrolidin-3-yl)piperidin-4-yl)-1-methyl-1H-indazol-5-yl)-7-(4-chlorophenyl)-5-methylbenzo[d]thiazol-6-yl)-2-(tert-butoxy)acetic Acid]: the EC50 in assay [1] (setting [4]) stood at 138 nM; in assay [2] (setting [5]), 10 nM; in assay [3] (setting [6]), 81 nM.

For the molecule `Cc1cc2nc(-c3ccc4c(c3)c(C3CN(C(C)C)C3)nn4C)sc2c(-c2ccc(Cl)cc2)c1[C@H](OC1CC1)C(=O)O` [Compound 55, (S)-2-(7-(4-chlorophenyl)-2-(3-(1-isopropylazetidin-3-yl)-1-methyl-1H-indazol-5-yl)-5-methylbenzo[d]thiazol-6-yl)-2-cyclopropoxyacetic Acid], the 50% effective concentration (EC50) in assay [1] (setting [4]) is 1070 nM; in assay [2] (setting [5]) it was 36 nM; in assay [3] (setting [6]) it was 372 nM.

Take `Cc1cc2nc(-c3ccc4c(c3)c(C3CCN(C5COC5)CC3)nn4C3CC3)sc2c(-c2ccc(Cl)cc2)c1[C@H](OC(C)(C)C)C(=O)O` [Compound 38, (S)-2-(tert-butoxy)-2-(7-(4-chlorophenyl)-2-(1-cyclopropyl-3-(1-(oxetan-3-yl)piperidin-4-yl)-1H-indazol-5-yl)-5-methylbenzo[d]thiazol-6-yl)acetic acid]: the EC50 in assay [1] (setting [4]) stood at 349 nM; in assay [2] (setting [5]) it was 8 nM; in assay [3] (setting [6]), 293 nM.

As for `Cc1cc2nc(-c3ccc4c(c3)c(N3CCNC3=O)nn4C)sc2c(-c2ccc(Cl)cc2)c1[C@H](OC(C)(C)C)C(=O)O` [Compound 78, (S)-2-(tert-butoxy)-2-(7-(4-chlorophenyl)-5-methyl-2-(1-methyl-3-(2-oxoimidazolidin-1-yl)-1H-indazol-5-yl)benzo[d]thiazol-6-yl)acetic acid], the EC50 in assay [1] (setting [4]) came to 3190 nM; in assay [2] (setting [5]), 32 nM; in assay [3] (setting [6]) it was 2690 nM.

In the case of `COC(=O)N1CC[C@@H](N2CCC(c3cn(C)c4ncc(-c5nc6cc(C)c([C@H](OC(C)(C)C)C(=O)O)c(-c7ccc(Cl)cc7)c6s5)cc34)CC2)C1` [Compound 201, (S)-2-(tert-butoxy)-2-(7-(4-chloro-phenyl)-2-(3-(1-((R)-1-(methoxy-carbonyl)pyrrolidin-3-yl)piperidin-4-yl)-1-methyl-1H-pyrrolo[2,3-b]pyridin-5-yl)-5-methylbenzo[d]thiazol-6-yl) acetic acid], the EC50 in assay [1] (setting [4]) came out at 530 nM; in assay [2] (setting [5]), 7 nM; in assay [3] (setting [6]) it was 92 nM.

As to `Cc1cc2nc(-c3ccc4c(c3)c(N3CCN(CCN5CCOCC5)C3=O)nn4C)sc2c(-c2ccc(Cl)cc2)c1[C@H](OC(C)(C)C)C(=O)O` [Compound 83, (S)-2-(tert-butoxy)-2-(7-(4-chlorophenyl)-5-methyl-2-(1-methyl-3-(3-(2-morpholinoethyl)-2-oxoimidazolidin-1-yl)-1H-indazol-5-yl)benzo[d]thiazol-6-yl)acetic acid], the EC50 turned out to be 2810 nM in assay [1] (setting [4]), 17 nM in assay [2] (setting [5]) and 2230 nM in assay [3] (setting [6]).

For `CCn1nc(C2CCN(C3CN(C(C)=O)C3)CC2)c2nc(-c3nc4cc(C)c([C@H](OC(C)(C)C)C(=O)O)c(-c5ccc(Cl)cc5)c4s3)ccc21` [Compound 181, (S)-2-(2-(3-(1-(1-acetylazetidin-3-yl)piperidin-4-yl)-1-ethyl-1H-pyrazolo[4,3-b]pyridin-5-yl)-7-(4-chlorophenyl)-5-methylbenzo [d]thiazol-6-yl)-2-(tert-butoxy) acetic acid], the figures for the EC50 in assay [1] (setting [4]), in assay [2] (setting [5]) and in assay [3] (setting [6]) were 34 nM, 1 nM and 12 nM, respectively.
